The source of these data is patent publication US4088642A (priority 1973, dated 1978).

One series can be described thus: Storage stability. Format: physicochemical.
A short description of series [1]: Decomposition rate studies (half-life of azo and peroxide portions). Format: physicochemical. As to the method:
The temperatures at which the polymerizations are carried out will depend upon the polymerization technique; the monomer, solvent or suspending medium; and the physical properties desired in the polymer; but most of all upon the azo-peroxide initiator and the method chosen to decompose the azo or peroxide portion of the initiator. Activation of the peroxide portion by amines, reducing agents, transition metal carboxylates, etc., can be carried out from below -20° C up to its normal decomposition temperature. The same is true for activation of the peroxide or azo portions by irradiation. Irradiation sources can be ultra-violet radiation, and in the presence of photosensitizers (e.g. certain azo dyes) visible light can also be used. The temperatures used for the thermal decompositions of the azo or peroxide portions will depend upon the thermal stability (half-life) of the azo or peroxide grouping in the molecule. These half-lives can be determined quantitatively for each azo-peroxide compound by conventional methods i.e. gas evolution, and iodometric, ultra-violet, or gas chromatographic analytical techniques to determine the rate of disappearance of each portion (azo or peroxide) at any given temperature. (Such half-life data were determined for the compounds made in Examples 1 to 5.) […]
Its infrared spectrum was in agreement with the above structure showing both peresters and acid chloride carbonyl absorption bands. […] Apparently, the perester undergoes induced decomposition at this relatively high temperature.

On to `CC1(C#N)CCC(=O)OOC(=O)CCC(C)(C#N)N=N1` (stereo not shown) [Example 1, 6,9-Dimethyl-6,9-dicyano-Δ^7,1,2-dioxa-7,8-diazacyclododecan-3,12-dione], for which the storage stability result in “Storage stability” is recorded as “more than one month”. For the same compound, in series [1] (70° C, o-dichlorobenzene), the “t1/2 of azo portion” value was “≈ 236 minutes” and the “t1/2 of diacyl peroxide portion” value is on record as “≈ 99 minutes”.

As for `CC(C#N)(CCC(=O)Cl)N=NC(C)(C#N)CCC(=O)OOC(C)(C)C` (stereo not drawn) [Example 5, mono-t-Butylperoxy Ester of the Diacid Chloride of trans-4,4'-Azobis(4-cyanovaleric acid)], the “decomposition order of azo and perester linkages” value in series [1] (90° C, dioctyl phthalate) was “decompose simultaneously”.

On to `CC(C#N)(CCC(=O)OOC(C)(C)C)N=NC(C)(C#N)CCC(=O)OOC(C)(C)C` (stereo not drawn) [Example 4, Di-t-butylperoxy Ester of cis-4,4'-Azobis(4-cyanovalericacid)], for which the “change of infrared spectrum on standing (room temperature stability)” value in the series “Storage stability” (two days at 21° C) is given as “not changed”. In series [1] (80° C, trichlorobenzene), the “t1/2 of azo portion” value is reported as “≈ 92 minutes” and the “t1/2 of perester portion” value is given as “≈ 319 minutes”.
